Like-named read-outs stand apart in the source and are kept apart here.
Legend:
cancer cell lines = assay: Cell viability analysis (WST-1) on cancer cell lines; assay type: cell-based, human; conditions: drug 10 μM, 72 hours, WST-1; Table 3
[1] = test system: MCF7 (Mammary Gland, Adenocarcinoma); assay: Cell viability analysis, breast cancer MCF7; assay type: cell-based, human; conditions: Homo sapiens, MCF7, 72 h
[2] = test system: AGS (Gastric Adenocarcinoma); assay: Cell viability analysis, gastric cancer AGS; assay type: cell-based, human; conditions: Homo sapiens, 72 h
[3] = test system: HCT116 (p53+) (Colorectal Carcinoma)
U-2OS = assay: Cell viability analysis, osteosarcoma U-2OS; assay type: cell-based, human; conditions: Homo sapiens, U2OS, 72 h, read-out: The results of antibiotic drug inhibiting cancer cell lines (cell viability analysis), U2OS
T24 = assay: Cell viability analysis, bladder cancer T24; assay type: cell-based, human; conditions: Homo sapiens, T-24, 72 h, read-out: The results of antibiotic drug inhibiting cancer cell lines (cell viability analysis), T24
[4] = test system: A375 (Amelanotic Melanoma); assay: Cell viability analysis, skin cancer A375; assay type: cell-based, human; conditions: Homo sapiens, A-375, 72 h
AsPC-1 = assay: Cell viability analysis, pancreatic cancer AsPC-1; assay type: cell-based, human; conditions: Homo sapiens, ASPC1, 72 h, read-out: The results of antibiotic drug inhibiting cancer cell lines (cell viability analysis), AsPC-1
[5] = test system: PC3 (p53−) (Prostate Adenocarcinoma); assay: Cell viability analysis, prostate cancer PC3; assay type: cell-based, human; conditions: Homo sapiens, 72 h
TOV-21G = assay: Cell viability analysis, ovarian cancer TOV-21G; assay type: cell-based, human; conditions: Homo sapiens, TOV21G, 72 h, read-out: The results of antibiotic drug inhibiting cancer cell lines (cell viability analysis), TOV-21G
[6] = test system: 786-O (Renal adenocarcinoma); assay: Cell viability analysis, renal cancer 786-O; assay type: cell-based, human; conditions: Homo sapiens, 786-0, 72 h, read-out: The results of antibiotic drug inhibiting cancer cell lines (cell viability analysis), 786-O
[7] = test system: MDA-MB-231 (Mammary Gland, Adenocarcinoma); assay: Cell viability analysis, breast cancer MDA-MB-231; assay type: cell-based, human; conditions: Homo sapiens, MDA-MB-231, 72 h, read-out: The results of antibiotic drug inhibiting cancer cell lines (cell viability analysis), MDA-MB231
[8] = test system: HeLa (Cervix Adenocarcinoma); assay: Cell viability analysis, cervical cancer HeLa; assay type: cell-based, human; conditions: Homo sapiens, HeLa, 72 h
[9] = test system: SAS (Tongue squamous cell carcinoma); assay: Cell viability analysis, tongue cancer SAS; assay type: cell-based, human; conditions: Homo sapiens, 72 h, read-out: The results of antibiotic drug inhibiting cancer cell lines (cell viability analysis), SAS
[10] = test system: Hep3B (hepatocellular carcinoma); assay: Cell viability analysis, hepatic cancer Hep3B; assay type: cell-based, human; conditions: Homo sapiens, Hep3B, 72 h, read-out: The results of antibiotic drug inhibiting cancer cell lines (cell viability analysis), Hep3B
[11] = test system: BCC (basal cell carcinoma); assay: Cell viability analysis, skin cancer BCC; assay type: cell-based, human; conditions: Homo sapiens, 72 h, read-out: The results of antibiotic drug inhibiting cancer cell lines (cell viability analysis), BCC
BxPC-3 = assay: Cell viability analysis, pancreatic cancer BxPC-3; assay type: cell-based, human; conditions: Homo sapiens, BXPC-3, 72 h, read-out: The results of antibiotic drug inhibiting cancer cell lines (cell viability analysis), BxPC-3
NIH: OVCAR-3 = assay: Cell viability analysis, ovarian cancer NIH: OVCAR-3; assay type: cell-based, human; conditions: Homo sapiens, OVCAR-3, 72 h, read-out: The results of antibiotic drug inhibiting cancer cell lines (cell viability analysis), NIH-OVCAR-3
[12] = test system: A549 (Lung Adenocarcinoma); assay: Cell viability analysis, lung cancer A549; assay type: cell-based, human; conditions: Homo sapiens, A549, 72 h
[13] = test system: HI650 (Lung Adenocarcinoma); assay: Cell viability analysis, lung cancer HI650; assay type: cell-based, human; conditions: Homo sapiens, NCI-H1650, 72 h
[14] = test system: HL-60 (Acute Promyelocytic Leukemia); assay: Cell viability analysis, leukemia HL-60; assay type: cell-based, human; conditions: Homo sapiens, HL-60, 72 h, read-out: cell viability (survival rate), HL-60, drug 10 μM, 72 hours, WST-1, OD450 nm
[15] = test system: MKN-45 (Gastric Adenocarcinoma); assay: Cell viability analysis, gastric cancer MKN-45; assay type: cell-based, human; conditions: Homo sapiens, MKN-45, 72 h
[16] = test system: LoVo (Colorectal Adenocarcinoma); assay: Cell viability analysis, colon cancer LoVo; assay type: cell-based, human; conditions: Homo sapiens, LoVo, 72 h
[17] = test system: TSGH-8301 (Urinary Bladder Carcinoma); assay: Cell viability analysis, bladder cancer TSGH-8301; assay type: cell-based, human; conditions: Homo sapiens, 72 h
[18] = read-out: The results of antibiotic drug inhibiting cancer cell lines (cell viability analysis), MCF-7, MCF-7, repeated experiment
[19] = read-out: cell viability (survival rate), MCF7, drug 10 μM, 72 hours, WST-1, OD450 nm
[20] = read-out: The results of antibiotic drug inhibiting cancer cell lines (cell viability analysis), AGS, repeated experiment
[21] = read-out: cell viability (survival rate), AGS, drug 10 μM, 72 hours, WST-1, OD450 nm
[22] = read-out: The results of antibiotic drug inhibiting cancer cell lines (cell viability analysis), A375, A375, repeated experiment
[23] = read-out: cell viability (survival rate), A375, drug 10 μM, 72 hours, WST-1, OD450 nm
[24] = read-out: The results of antibiotic drug inhibiting cancer cell lines (cell viability analysis), PC-3, PC-3, repeated experiment
[25] = read-out: cell viability (survival rate), PC3, drug 10 μM, 72 hours, WST-1, OD450 nm
[26] = read-out: The results of antibiotic drug inhibiting cancer cell lines (cell viability analysis), HeLa, repeated experiment
[27] = read-out: cell viability (survival rate), HeLa, drug 10 μM, 72 hours, WST-1, OD450 nm
[28] = read-out: The results of antibiotic drug inhibiting cancer cell lines (cell viability analysis), A549, A549, repeated experiment
[29] = read-out: cell viability (survival rate), A549, drug 10 μM, 72 hours, WST-1, OD450 nm
[30] = read-out: The results of antibiotic drug inhibiting cancer cell lines (cell viability analysis), H1650, H1650, repeated experiment
[31] = read-out: cell viability (survival rate), H1650, drug 10 μM, 72 hours, WST-1, OD450 nm
[32] = read-out: The results of antibiotic drug inhibiting cancer cell lines (cell viability analysis), MKN-45, MKN-45, repeated experiment
[33] = read-out: cell viability (survival rate), MKN-45, drug 10 μM, 72 hours, WST-1, OD450 nm
[34] = read-out: The results of antibiotic drug inhibiting cancer cell lines (cell viability analysis), LoVo, repeated experiment
[35] = read-out: cell viability (survival rate), LoVo, drug 10 μM, 72 hours, WST-1, OD450 nm
[36] = read-out: The results of antibiotic drug inhibiting cancer cell lines (cell viability analysis), TSGH-8301, TSGH-8301, repeated experiment
[37] = read-out: cell viability (survival rate), TSGH, drug 10 μM, 72 hours, WST-1, OD450 nm

Structure (SMILES)	inhibition effect on different cancer cell lines (cancer cell lines)	viability at 10 µM [1, 18]	viability at 10 µM [1, 19]	viability at 10 µM [2, 20]	viability at 10 µM [2, 21]	viability [3]	viability at 10 µM (U-2OS)	viability at 10 µM (T24)	viability at 10 µM [4, 22]	viability at 10 µM [4, 23]	viability at 10 µM (AsPC-1)	viability at 10 µM [5, 24]	viability at 10 µM [5, 25]	viability at 10 µM (TOV-21G)	viability at 10 µM [6]	viability at 10 µM [7]	viability at 10 µM [8, 26]	viability at 10 µM [8, 27]	viability at 10 µM [9]	viability at 10 µM [10]	other results
Cc1ncc([N+](=O)[O-])n1CCO [Metronidazole (Flagyl), Metronidazole]	significant inhibition effect	77.3%	43.8%	113%	90.5%	98.9%	99.6%	93.8%	74.7%	56.4%	83.1%	95.6%	40.9%	95.8%	92%	93.3%	75.3%	90.7%	112%	92.3%	viability at 10 µM [11]: 68.2%; viability at 10 µM (BxPC-3): 83.6%; viability at 10 µM (NIH: OVCAR-3): 110%; viability at 10 µM [12, 28]: 97.7%; viability at 10 µM [12, 29]: 36.5%; viability at 10 µM [13, 30]: 87.2%; viability at 10 µM [13, 31]: 94.9%; viability at 10 µM [14]: 90.8%; viability at 10 µM [15, 32]: 108%; viability at 10 µM [15, 33]: 57.7%; viability at 10 µM [16, 34]: 118%; viability at 10 µM [16, 35]: 61.1%; viability at 10 µM [17, 36]: 92.4%; viability at 10 µM [17, 37]: 62%
Clc1ccc(COC(Cn2ccnc2)c2ccc(Cl)cc2Cl)c(Cl)c1 (centres unmarked) [Miconazole nitrate]	significant inhibition effect	95.6%	50.7%	114%	51.1%	122%	64.2%	77.7%	100%	31.5%	75.5%	116%	30.4%	80.6%	75.2%	107%	95.7%	57.6%	69.6%	126%	viability at 10 µM [11]: 80.7%; viability at 10 µM (BxPC-3): 65.3%; viability at 10 µM (NIH: OVCAR-3): 94.8%; viability at 10 µM [12, 28]: 97.3%; viability at 10 µM [12, 29]: 37.3%; viability at 10 µM [13, 30]: 83.1%; viability at 10 µM [13, 31]: 68.8%; viability at 10 µM [14]: 41.4%; viability at 10 µM [15, 32]: 99.8%; viability at 10 µM [15, 33]: 45%; viability at 10 µM [16, 34]: 81.3%; viability at 10 µM [16, 35]: 62.1%; viability at 10 µM [17, 36]: 102%; viability at 10 µM [17, 37]: 41.8%
